{"source": "patent US20130059096A1", "about": "“METHODS AND COATINGS FOR TREATING BIOFILMS” (President and Fellows of Harvard College, priority 2010, published 2013)", "key": {"[1]": {"tested_on": "Bacillus subtilis NCIB3610", "assay": "Pellicle (biofilm) formation in liquid biofilm-inducing medium", "assay_type": "cell-based", "description": "(§1) Colony and pellicle formation. For colony formation on solid medium, cells were first grown to exponential growth phase in LB broth and 3 μl of culture were spotted onto solid MSgg medium containing 1.5% Bacto agar. The plates were incubated at 23° C. For pellicle formation in liquid medium, cells were grown to exponential phase and 6 μl of culture were mixed with 6 ml of medium in a 12-well plate (VWR). Plates were incubated at 23° C. Images of colonies and pellicles were taken using a SPOT camera (Diagnostic Instruments, USA).\nPreparing conditioned medium. Cells were grown in LB medium to exponential phase. 0.1 ml of culture was added to 100 ml of MSgg medium and grown without shaking in a 500 ml beaker at 23° C. Next, pellicles and conditioned medium was collected by centrifugation at 8,000 rpm for 15 min. The conditioned medium (supernatant fluid) was removed and filtered through a 0.22 μm filter. The filtrates were stored at 4° C. For further purification the biofilm-inhibiting activity was fractionated on a C-18 Sep Pak cartridge using stepwise elution of 0% to 100% methanol with steps of 5%.\nTo investigate whether mature biofilms produce a factor that triggers biofilm disassembly, the effect of concentrated and partially purified extracts of conditioned medium on pellicle formation when added to fresh medium was assayed. To this end, conditioned medium from an eight-day-old culture was applied to a C18 Sep Pak column. Concentrated eluate from the column was then added to a freshly inoculated culture. […] Further purification of the factor was achieved by eluting the cartridge in step-wise fashion with increasing concentrations of methanol.\nNext, the minimum concentration (MIC for Minimal Inhibitory Concentration) needed to prevent biofilm formation was determined."}, "[2]": {"tested_on": "Bacillus subtilis NCIB3610", "assay": "Colony biofilm formation on solid MSgg medium", "assay_type": "cell-based", "settings": "3 μM, 4 days", "description": "as §1"}, "Bacillus subtilis": {"tested_on": "Bacillus subtilis", "assay": "Cell growth in MSgg medium with shaking", "assay_type": "cell-based", "settings": "3 μM"}, "TasA-mCherry": {"tested_on": "TasA-mCherry", "assay_type": "cell-based, Bacillus subtilis", "settings": "6 μM", "description": "Fluorescence microscopy. For fluorescence microscopy analysis, 1 ml of culture was harvested. The cells were washed with PBS buffer and suspended in 50 μl of PBS buffer. Cover slides were pretreated with poly L-lysine (Sigma). Samples were examined using an Olympus workstation BX61 microscope. Images were taken using the automated software program SimplePCI and analyzed with program MetaMorph (Universal Imaging Corporation).\nThe cells were grown to stationary phase with shaking in biofilm-inducing medium in the presence or absence of D-tyrosine (6 μM). […] In contrast, when the cells were washed by centrifugation, resuspended and then examined by fluorescence microscopy, untreated cells (which were often in clumps) were seen to be intensely decorated with TasA-mCherry. […] The localization of unmodified TasA protein was also analyzed by transmission electron microscopy using gold-labeled anti-TasA antibodies. […] 24-hour-old cultures were incubated without (images 1 and 2) or with (images 3-6) D-tyrosine (0.1 mM) for an additional 12 hours. TasA fibers were stained by immunogold labeling using anti-TasA antibodies, and visualized by transmission electron microscopy as described in the Examples. […] Filled arrows indicate fiber bundles; open arrows indicate individual fibers. The scale bar is 500 nm. The scale bar in the enlargements of images 2, 4 and 6 is 100 nm. […]"}, "TasA fibers": {"tested_on": "TasA fibers", "assay": "Cell association of TasA fibers by immunogold transmission electron microscopy", "assay_type": "cell-based, Bacillus subtilis", "settings": "0.1 mM, 24-hour-old Δeps cultures treated for 12 hours", "description": "Transmission electron microscopy and immunolabeling. Samples were diluted with distilled water and adsorbed onto a carbon or formvar/carbon coated grid. The grid surface was made hydrophilic prior to use with glow discharge in a vacuum evaporator. Once the specimen was adsorbed onto the film surface, the excess sample was blotted off on a filter paper (Whatman #1) and the grid was floated on 5 μl of stain solution (1-2% aqueous uranyl acetate) for a few minutes and then blotted off. The samples were dried and examined in a Tecnai™ G^2 Spirit BioTWIN microscope at an accelerating voltage of 80 KV. Images were taken with an AMT 2k CCD camera. […]\nThe cells were grown to stationary phase with shaking in biofilm-inducing medium in the presence or absence of D-tyrosine (6 μM). […] In contrast, when the cells were washed by centrifugation, resuspended and then examined by fluorescence microscopy, untreated cells (which were often in clumps) were seen to be intensely decorated with TasA-mCherry. […] The localization of unmodified TasA protein was also analyzed by transmission electron microscopy using gold-labeled anti-TasA antibodies. […]"}, "P.a. Harvard PA14": {"tested_on": "P.a. Harvard PA14", "assay": "Biofilm (colony architecture) formation on defined M63 medium", "assay_type": "cell-based, Pseudomonas aeruginosa", "settings": "500 μM", "text": "Similarly to Bacillus subtilis, Pseudomonas aeruginosa forms a complex architecture on defined medium. These complex structures require the proper formation and assembly of the extra-cellular matrix. […] For these experiments, the organism/strain was P.a. Harvard PA14, the culture medium was M63 and the cell inoculation was at 1.5×10^9 cfu."}, "Pseudomonas aeruginosa": {"tested_on": "Pseudomonas aeruginosa", "assay": "Attached single cells in well plate, Syto-9 staining", "assay_type": "cell-based", "description": "An alternative method to observe biofilm formation on a 6 well plate with or without D-amino acids and using Syto-9 staining was as follows: Pseudomonas aeruginosa biofilms were washed twice with PBS and then fixed for at least an hour in 5% Glutaraldehyde in PBS. The fixed biofilms were then rinsed once again with PBS and soaked in 0.1% v/v Triton X-100 in PBS (PBST) for 15 minutes. The solution was exchanged with 0.1 nM […] (Invitrogen) in cold PBST and gently rocked in the dark for at least 15 minutes. Fluorescence images of the biofilms were captured with a Leica DMRX compound microscope using a Xe lamp and a K3 Leica filtercube. […] The amount of attached single cells was quantified using image J. The decrease in the amount of cells attached to the epoxy surfaces soaked with D-aa compared with the L-aa control was substantially more."}}, "data": [{"smiles": "N[C@H](Cc1ccc(O)cc1)C(=O)O", "note": "[D-tyrosine]", "values": [{"measurement": "Effect on pellicle formation (FIG. 2A)", "setting": "[1]; 3 μM, freshly inoculated culture, biofilm-inducing medium, 3 days", "result": "significant inhibition of biofilm growth"}, {"measurement": "minimum concentration (MIC / MBIC) needed to prevent biofilm formation", "setting": "[1]; FIG. 2B, complete inhibition of pellicle formation, mixture in equimolar amounts", "result": "about 100 nM"}, {"measurement": "Biofilm-inhibition assay for B. subtilis", "setting": "[1]; summary statement, concentration not given", "result": "significant inhibition of biofilm growth"}, {"measurement": "Biofilm formation on solid MSgg medium (FIG. 6)", "setting": "[2]", "result": "inhibited biofilm formation"}, {"measurement": "Cell growth (FIG. 8)", "setting": "Bacillus subtilis", "result": "substantially the same as the untreated sample"}, {"measurement": "total accumulation of TasA-mCherry (FIG. 3B)", "setting": "TasA-mCherry; grown to stationary phase with shaking", "result": "little or no effect"}, {"measurement": "Cell decoration with TasA-mCherry, fluorescence microscopy of washed cells", "setting": "TasA-mCherry; grown to stationary phase, washed and resuspended", "result": "only low levels of fluorescence"}, {"measurement": "Cell association of TasA fibers (FIG. 3D)", "setting": "TasA fibers", "result": "largely undecorated with TasA fibers"}, {"measurement": "Biofilm formation on defined medium (FIG. 20)", "setting": "P.a. Harvard PA14", "result": "inhibited biofilm formation"}, {"measurement": "inhibition at 50 µM", "setting": "Pseudomonas aeruginosa; Pseudomonas aeruginosa, 12 h, read-out: % Inhibition relative to control (0%, <50%, 50-90%, >90%)", "result": "> 90", "unit": "%"}, {"measurement": "number of cells attached to the bottom of the biofilm plate (FIG. 21)", "setting": "Pseudomonas aeruginosa; concentration not given", "result": "dramatic decrease in the number of cells attached"}]}]}
